pKi: −log10 of the molar value. Square brackets hold non-standard residues; d marks the D form. Peptide text beside a SMILES is read from it. * marks the point of attachment. DOTA = O=C(O)CN1CCN(CC(=O)O)CCN(CC(=O)*)CCN(CC(=O)O)CC1; DTPA = O=C(O)CN(CCN(CC(=O)O)CC(=O)O)CCN(CC(=O)O)CC(=O)*; CH2Cl = ClC*
Assays:
[1] = tested on: localized lesion / thrombus; settings: rat
Excerpt: we have used several experimental models of endovascular thrombus formation in rats, which have been already developed for molecular molecular imaging of platelet activation and fibrin formation, including aneurysm of the abdominal aorta {Sarda-Mantel, 2006}, endocarditic vegetations {Rouzet, 2008}. Aneurysm of the aorta was induced by matrix decellularized xenograft in rats {Allaire, 1996}, and endocarditis by left or right ventricle catheterization followed by provoked bacteraemia {Rouzet, 2008} as previously described. These thrombus models were completed by a model of stroke, provoked by cerebral autologous thrombus emboli in rats (reference). […]
Relevant tissues (heart, abdominal aorta, or brain according to the model) were carefully dissected, frozen and cut into transverse sections of 20 μm thickness, which were exposed in a digital radioimager (Instant Imager, Packard, Meriden, USA) for 12 hours. The activity normalized to the region of interest area (mean counts/min/mm^2 corrected for background activity) was determined on autoradiograms. Quantification was performed by calculating the ratio between the activity of the relevant tissue and the activity of a region of interest drawn on either normal myocardium remote from the vegetation in the endocarditis model, supra-renal aorta sample in the AAA model, or the contralateral brain hemisphere in the stroke model. […]

[2] = biological target: T1, plasmin from human plasma (Homo sapiens, UniProt P00747); assay: Determination of plasmin activity with fluorescent substrate Suc-Ala-Phe-Lys-AMC; type: biochemical; settings: for % of plasmin activity (mean): 10 nM plasmin, 15 min pre-incubation at room temperature, n=4
T1 construct: plasmin from human plasma (calbiochem); purchased calbiochem; host or cells: human plasma
Protocol: Plasmin with or without inhibitors was incubated at room temperature for 15 min. The fluorescent substrate (40 μM) was added just before reading (λ excitation 390 nm, λ emission 460 nm)
10 nM of plasmin from human plasma (calbiochem) was diluted in Tris-HCl buffer pH 7.4 50 mM, NaCl 100 mM and Tween-20 0.01%. The samples were then incubated or not with the different inhibitors (see below) for 15 minutes at room temperature. Then, the fluorescent substrate (Suc-Ala-Phe-Lys-AMC, […]) was added just before reading (λ excitation 390 nm, λ emission 460 nm) on the Fluoroskan Ascent plate reader (Thermo Fisher). The fluorescence intensity was evaluated every 10 minutes for 2 hours at 37° C.—The integration time for each measure was 20 ms.
Each inhibitor was tested in a range of concentrations from 5 nM up to 1000 nM. All the inhibitors were tested in duplicates for each concentration and 4 independent experiments were performed.
Results are presented as % of active plasmin. The differences between the concentrations of each inhibitor were evaluated by paired t-test using StatView software. Statistical significance was accepted when p<0.05.

plasmin = plasmin (Homo sapiens, UniProt P00747); settings: competitive inhibitor of plasmin; Chi, 1989; cited from earlier work
Sequence of plasmin (P00747 581-810 limits assumed, species assumed): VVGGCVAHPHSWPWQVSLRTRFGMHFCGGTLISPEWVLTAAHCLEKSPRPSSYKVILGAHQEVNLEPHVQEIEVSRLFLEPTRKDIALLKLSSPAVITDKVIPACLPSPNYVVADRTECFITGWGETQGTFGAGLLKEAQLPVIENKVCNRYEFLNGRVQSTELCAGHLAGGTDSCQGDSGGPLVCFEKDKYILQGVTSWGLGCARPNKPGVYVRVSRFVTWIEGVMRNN
Sequence of plasmin (P00747 97-580 partner limits assumed, species assumed): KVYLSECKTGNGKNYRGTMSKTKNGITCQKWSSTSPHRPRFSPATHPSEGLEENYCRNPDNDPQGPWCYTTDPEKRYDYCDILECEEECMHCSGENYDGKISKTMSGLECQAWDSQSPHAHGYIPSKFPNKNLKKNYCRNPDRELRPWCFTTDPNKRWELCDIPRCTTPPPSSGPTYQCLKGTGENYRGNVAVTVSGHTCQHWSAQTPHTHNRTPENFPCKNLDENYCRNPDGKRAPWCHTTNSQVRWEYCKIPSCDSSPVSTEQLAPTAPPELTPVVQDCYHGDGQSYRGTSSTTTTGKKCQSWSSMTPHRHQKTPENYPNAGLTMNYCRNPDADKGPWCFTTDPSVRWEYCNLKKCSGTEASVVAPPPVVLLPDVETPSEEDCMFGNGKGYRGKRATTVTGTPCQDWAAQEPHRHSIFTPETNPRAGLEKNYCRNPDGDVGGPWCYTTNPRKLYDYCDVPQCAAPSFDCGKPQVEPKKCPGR

T1 sequence (P00747 581-810 limits assumed): as the sequence (P00747 581-810 limits assumed, species assumed) above
T1 sequence (P00747 97-580 partner limits assumed): as the sequence (P00747 97-580 partner limits assumed, species assumed) above

Compound | in vivo uptake by bone marrow [1] | % of plasmin activity (mean) ([2]; inhibitor 5 nM) [%] | % of plasmin activity (mean) ([2]; inhibitor 10 nM) [%] | % of plasmin activity (mean) ([2]; inhibitor 50 nM) [%] | % of plasmin activity (mean) ([2]; inhibitor 100 nM) [%] | % of plasmin activity (mean) ([2]; inhibitor 500 nM) [%] | % of plasmin activity (mean) ([2]; inhibitor 1000 nM) [%] | pKi (plasmin) | inhibitory effect on plasmin activity (in words) ([2]; range 5 nM to 1000 nM)
CC(C)[C@@H](NC(=O)CNC(=O)CN(CCN(CCN(CC(=O)O)CC(=O)O)CC(=O)O)CC(=O)O)C(=O)N[C@@H](Cc1ccccc1)C(=O)N[C@@H](CCCCN)C(=O)CCl [99mTc-DTPA-G-dVFKcmk, metal not drawn] ({DTPA}-G[dV]FK-CH2Cl) | high | – | – | – | – | – | – | – | –
CC(C)[C@@H](NC(=O)CNC(=O)CN1CCN(CC(=O)O)CCN(CC(=O)O)CCN(CC(=O)O)CC1)C(=O)N[C@@H](Cc1ccccc1)C(=O)N[C@@H](CCCCN)C(=O)CCl [PL 701, DOTA-G-dV-F—K-cmk] ({DOTA}-G[dV]FK-CH2Cl) | – | 83.0 | 79.1 | 68.7 | 54.6 | 34.1 | 12.8 | – | –
CC(C)[C@@H](NC(=O)CNC(=O)CN1CCN(CC(=O)O)CCN(CC(=O)O)CCN(CC(=O)O)CC1)C(=O)N[C@@H](Cc1ccccc1)C(=O)N[C@@H](C)C(=O)CCl [PL 703, DOTA-G-dV-F-A-cmk] ({DOTA}-G[dV]FA-CH2Cl) | – | 94.9 | 93.6 | 86.1 | 84.1 | 58.4 | 48.4 | – | –
CC(C)[C@@H](NC(=O)CNC(=O)CN(CCN(CCN(CC(=O)O)CC(=O)O)CC(=O)O)CC(=O)O)C(=O)N[C@@H](Cc1ccccc1)C(=O)N[C@@H](CCCCN)C(=O)CCl [PL 704, DTPA-G-dV-F—K-cmk] ({DTPA}-G[dV]FK-CH2Cl) | – | 56.3 | 46.2 | 27.4 | 16.6 | 4.0 | 1.1 | – | –
CC(=O)N[C@@H](CC(C)C)C(=O)N[C@@H](CC(C)C)C(=O)N[C@H](C=O)CCCNC(=N)N [leupeptin, Ac-Leu-Leu-Arg-H] | – | – | – | – | – | – | – | ~7.00 | –
D-Val-Phe-Lys-COCH2Cl [VFK, reference compound] | – | 77.1 | 68.3 | 39.1 | 11.9 | 8.0 | 7.8 | – | –
G-dV-F-A-cmk [PL 702] | – | 102.3 | 123.5 | 122.9 | 113.3 | 112.1 | 107.3 | – | totally abolished
G-dV-F—K-cmk [PL 700] | – | 89.8 | 95.6 | 65.7 | 43.1 | 15.8 | 5.8 | – | –
